Reference: patent US6329378A, “Hydrazone, hydrazine and thiosemicarbazone derivatives as antifungal agents” (Anadys Pharmaceuticals, Inc., priority 2000, dated 2001)
≈ marks a conversion by molar mass, not a printed value.

Key:
C. albicans = assay: MIC, broth microdilution (NCCLS M27-A), C. albicans; assay type: cell-based, Candida albicans; details: 48 hours, C. albicans ATCC 10231; for MIC C. albicans: 35° C.; for MIC: Candida albicans, ATCC10231, 35° C.
Protocol: (§1) Compounds of the invention were tested for antifungal susceptibility using broth microdilution assay established by the National Committee for Clinical Laboratory Standards, in NCCLS Document M27-A, which is hereby incorporated by reference. Minimum inhibitory concentrations (MICs) and minimum fungicidal concentrations (MFCs) were measured.
(§2) Yeasts (Saccharomyces cerevisiae and Candida albicans) are cultured on SDA plates in a 35° C. incubator. Strains on SDA plates are stored at 4° C. and used as working stock cultures.
(§3) Inoculum for susceptibility testing is prepared from fresh 24 hour cultures. 5-10 colonies are scraped from the plate and suspended in three milliliters of sterile 0.85% saline (8.5 g/liter NaCl). The cell density of the solution is determined by measuring the absorbance in a spectrophotometer (Shimadzu UV-1201S UV-VIS Spectrophotometer) set at 600 nm. An absorbance value between 0.1 and 0.4 is required for an accurate reading.
(§4) For Candida albicans strains ATCC 10231, 1.0 OD600 unit is approximately 10^7 cells per ml. For Saccharomyces cerevisiae strain CTY552, 1.0 OD600 unit is slightly less than 10^7 cells per ml. Cell suspensions are diluted with the appropriate medium (typically RPMI-1640) to OD600 =0.0003 for Candida and OD600 =0.0004 for Saccharomyces. The diluted suspension contains approximately 3×10^3 cells per ml (this is a 2×concentration inoculum). Two 100 μl aliquots of this dilution are spread on SDA plates and incubated at 35° C. for 1-2 days to determine the precise number of colony forming units. An acceptable range for the inoculum (2×) is 1-5×10^3 cfu/ml (100-500 for 100 μl). Following two-fold dilution of the inoculum with compound, the final concentration of cells will be 0.5-2.5×10^3 per ml. The inoculum is kept at 4° C. and used within a few hours.
(§5) Stock solutions and concentrations tested will vary from compound to compound. In general, though, stock solutions of 12.8 mg/ml in DMSO (Sigma D-8779) are prepared. This will allow for a 128 μg/ml starting test concentration containing 1% DMSO. Stock solutions are stored at -20° C. and dilutions for antifungal testing are freshly prepared before each assay.
(§6) Stock solutions of Amphotericin B and Itraconazole are prepared at 1.6 mg/ml in DMSO. Amphotericin B is sold as a powder that is approximately 80% Amphotericin B. Stock solutions are made accordingly (2.0 mg of powder for a 1 ml solution of 1.6 mg/ml Amphotericin B).
(§7) Both of these (control and test compounds) represent 1:50 dilutions. For an assay with three fungal strains, 40 microliters of a stock solution are diluted to 2.0 ml with room temperature medium.
(§8) Antifungal susceptibility tests are setup in polystyrene, 96-well, flat bottom plates (Costar 9017). To every well in columns 2-12 is added 100 microliters of media. An electronic multichannel (12) pipettor with no tip on channel one is used. To every well in column one is added 200 microliters of diluted compound (32 μg/ml for Amphotericin B and Itraconazole controls, 256 μg/ml for test compounds, 100-fold dilution for natural product extracts). A manual multichannel (8) pipettor is then used to set up a series of 2-fold dilutions. 100 microliters is removed from each well of column one and mixed with 100 microliters in column 2. This is done successively (column two to column three etc.) to produce a set of 11 serial dilutions (column 12 is a drug free control).
(§9) To every well in two rows, 100 μl of inoculum (2×) of a single strain is added. To the final two rows on the plate (G & H), only media is added. Addition of inoculum is best accomplished using an electronic multichannel (12) pipettor. This setup (see below) creates a starting cell density of […] (100-500 per well) and drug concentration ranging from 16 μg/ml to […] for controls (Amphotericin B and Itraconazole), 128 μg/ml to 0.125 μg/ml for pure test compounds, and 200 to 204, 800-fold dilutions for natural product extracts.

S. serevisiae = assay: MIC, broth microdilution (NCCLS M27-A), S. cerevisiae; assay type: cell-based, Saccharomyces cerevisiae; details: for MIC S. serevisiae: broth microdilution, 35° C., 48 hours, S. cerevisiae CTY552; for MIC: Saccharomyces cerevisiae, 48 h, read-out: MIC S. serevisiae
Protocol: as §1, §2, §3, §4, §5, §6
Stock solutions of control compounds (1.6 mg/ml, Amphotericin B or Itraconazole) are initially diluted in medium to a concentration of 32 μg/ml while stock solutions of test compounds (typically 12.8 mg/ml) are diluted to 256 μg/ml. Both of these (control and test compounds) represent 1:50 dilutions. For an assay with three fungal strains, 40 microliters of a stock solution are diluted to 2.0 ml with room temperature medium.
as §8
To every well in two rows, 100 μl of inoculum (2×) of a single strain is added. To the final two rows on the plate (G & H), only media is added. Addition of inoculum is best accomplished using an electronic multichannel (12) pipettor. […]

A. Nidulans = assay: MIC, broth microdilution (NCCLS M27-A), A. nidulans; assay type: cell-based; details: 35° C., 48 hours; for MIC: Aspergillus nidulans
Protocol: as §1
Filamentous fungi (Aspergillus spp.) is cultured on PDA plates in a 35° C. incubator. Inoculum of Aspergillus for susceptibility testing is prepared from plates incubated at 35° C. for 5 days. Colonies are covered with 5 ml of sterile 0.85% saline (8.5 g/liter NaCl) and gently rocked for 10-15 minutes. To dislodge the conidia, an automatic pipettor is used to gently wash over the colonies. The saline solution is removed from the plate and the heavy particles are allowed to settle for 3-5 minutes. The upper suspension is removed and vortexed for 15 sec. The turbidity of the solution is determined by measuring the absorbance in a spectrophotometer (Shimadzu UV-1201S UV-VIS Spectrophotometer) set at 600 nm. An absorbance value between 0.1 and 0.4 is required for an accurate reading.
The cell suspension is diluted with the appropriate medium (typically RPMI-1640) to OD600 =0.0004. The final suspension should contain approximately 3×10^3 cfu per ml (this is a 2×concentrationinoculum). Two 100 μl aliquots of this dilution are spread on SDA plates and incubated at 35° C. for 1-2 days to determine the precise number of colony forming units. An acceptable range for the inoculum (2×) is 1-5×10^3 cfu/ml (100-500 for 100 μl). Following two-fold dilution of the inoculum with compound, the final concentration of cells will be 0.5-2.5×10^3 per ml. The inoculum is kept at 4° C. and used within a few hours.
as §5, §6, §7, §8, §9

Row | Molecule | MIC C. albicans (C. albicans) | MIC S. serevisiae (S. serevisiae) | MIC A. Nidulans (A. Nidulans) | MIC (C. albicans) | MIC (S. serevisiae) | MIC (A. Nidulans)
1 | 2-pyridyl-benzaldehyde-N-(3-methoxy-2-pyrazinyl)hydrazine [(34)] | 2 µg/mL | 1 µg/mL | 1 µg/mL | – | – | –
2 | 3-carboxyl-2-hydroxybenzaldehyde-N-(3-methoxy-2-phenyl)hydrazine [(17)] | > 128 µg/mL | > 128 µg/mL | > 128 µg/mL | – | – | –
3 | COc1cc(O)c(C=NNc2nccnc2OC)c(OC)c1 [(5)] | – | – | – | 1 µg/mL (≈ 3.29 µM) | 1 µg/mL (≈ 3.29 µM) | 2 µg/mL (≈ 6.57 µM)
4 | COc1nccnc1NN=Cc1cccc(O)c1O [(6)] | – | – | – | 2 µg/mL (≈ 7.68 µM) | 1 µg/mL (≈ 3.84 µM) | 1 µg/mL (≈ 3.84 µM)
5 | COc1nccnc1NN=Cc1ccc(O)cc1O [(7)] | – | – | – | 1 µg/mL (≈ 3.84 µM) | 1 µg/mL (≈ 3.84 µM) | 2 µg/mL (≈ 7.68 µM)
6 | COc1nccnc1N/N=C/c1ccc(O)c(O)c1O [(8)] | – | – | – | 4 µg/mL (≈ 14.5 µM) | 2 µg/mL (≈ 7.24 µM) | > 128 µg/mL
7 | COc1nccnc1N/N=C/c1ccc2ccccc2n1 [(9)] | – | – | – | 8 µg/mL (≈ 28.6 µM) | 8 µg/mL (≈ 28.6 µM) | 16 µg/mL (≈ 57.3 µM)
8 | O=C(O)c1ccc(O)c(C=NNc2ccccc2)c1 [(18), 5-carboxyl-2-hydroxybenzaldehyde-N-phenyl hydrazone] | – | – | – | 1 µg/mL (≈ 3.9 µM) | 1 µg/mL (≈ 3.9 µM) | 0.125 µg/mL (≈ 0.488 µM)
9 | Oc1ccccc1C=NNc1ccccc1 [(19), 2-hydroxybenzaldehyde-N-phenyl hydrazone] | – | – | – | 1 µg/mL (≈ 4.71 µM) | 1 µg/mL (≈ 4.71 µM) | 0.125 µg/mL (≈ 0.589 µM)
10 | O=C(O)c1ccc(O)c(C=NNc2cccc([N+](=O)[O-])c2)c1 [(20), 5-carboxyl-2-hydroxybenzaldehyde-N-3-nitro-phenyl hydrazone] | – | – | – | 8 µg/mL (≈ 26.6 µM) | 16 µg/mL (≈ 53.1 µM) | 2 µg/mL (≈ 6.64 µM)
11 | O=C(O)c1ccc(O)c(C=NNc2ccccc2OC(F)(F)F)c1 [(21), 5-carboxyl-2-hydroxybenzaldehyde-N-2-trifluoromethyloxy-phenyl hydrazone] | – | – | – | 2 µg/mL (≈ 5.88 µM) | 1 µg/mL (≈ 2.94 µM) | 1 µg/mL (≈ 2.94 µM)
12 | O=C(O)c1ccc(O)c(C=NNc2ccccc2C(=O)O)c1 [(22), 5-carboxyl-2-hydroxybenzaldehyde-N-2-carboxyl-phenyl hydrazone] | – | – | – | > 64 µg/mL | > 64 µg/mL | > 64 µg/mL
13 | O=C(O)c1ccc(O)c(C=NNc2cccc(F)c2)c1 [(23), 5-carboxyl-2-hydroxybenzaldehyde-N-3-fluorophenyl hydrazone] | – | – | – | 2 µg/mL (≈ 7.29 µM) | 2 µg/mL (≈ 7.29 µM) | 0.125 µg/mL (≈ 0.456 µM)
14 | O=C(O)c1ccc(O)c(C=NNc2ccccc2F)c1 [(24), 5-carboxyl-2-hydroxybenzaldehyde-N-2-fluoro-phenyl hydrazone] | – | – | – | 0.25 µg/mL (≈ 0.912 µM) | 0.5 µg/mL (≈ 1.82 µM) | 0.063 µg/mL (≈ 0.23 µM)
15 | O=C(O)c1ccc(O)c(C=NNc2ccccc2Br)c1 [(25), 5-carboxyl-2-hydroxybenzaldehyde-N-2-bromophenyl hydrazone] | – | – | – | 2 µg/mL (≈ 5.97 µM) | 2 µg/mL (≈ 5.97 µM) | 1 µg/mL (≈ 2.98 µM)
16 | O=C(O)c1ccc(O)c(C=NNc2ccccc2Cl)c1 [(26), 5-carboxyl-2-hydroxybenzaldehyde-N-2-chlorophenyl hydrazone] | – | – | – | 2 µg/mL (≈ 6.88 µM) | 1 µg/mL (≈ 3.44 µM) | 0.5 µg/mL (≈ 1.72 µM)
17 | Cc1cccc(NN=Cc2cc(C(=O)O)ccc2O)c1 [(27), 5-carboxyl-2-hydroxybenzaldehyde-N-3-methyl-phenyl hydrazone] | – | – | – | 1 µg/mL (≈ 3.7 µM) | 1 µg/mL (≈ 3.7 µM) | 0.25 µg/mL (≈ 0.925 µM)
18 | COc1ccccc1NN=Cc1cc(C(=O)O)ccc1O [(28), 5-carboxyl-2-hydroxybenzaldehyde-N-2-methoxy-phenyl hydrazone] | – | – | – | 1 µg/mL (≈ 3.49 µM) | 1 µg/mL (≈ 3.49 µM) | 0.25 µg/mL (≈ 0.873 µM)
19 | Cc1c(Cl)cccc1NN=Cc1cc(C(=O)O)ccc1O [(29), 5-carboxyl-2-hydroxybenzaldehyde-N-3-chloro-2-methyl-phenyl hydrazone] | – | – | – | 1 µg/mL (≈ 3.28 µM) | 1 µg/mL (≈ 3.28 µM) | 1 µg/mL (≈ 3.28 µM)
20 | O=C(O)c1ccc(O)c(C=NNc2cccc(Cl)c2)c1 [(30), 5-carboxyl-2-hydroxybenzaldehyde-N-3-chloro-phenyl hydrazone] | – | – | – | 2 µg/mL (≈ 6.88 µM) | 1 µg/mL (≈ 3.44 µM) | 0.5 µg/mL (≈ 1.72 µM)
21 | Oc1ccccc1CNNc1ccccc1 [(32)] | – | – | – | 1 µg/mL (≈ 4.67 µM) | 2 µg/mL (≈ 9.33 µM) | 0.125 µg/mL (≈ 0.583 µM)
22 | COc1nccnc1NNCc1ccccc1O [(33)] | – | – | – | 2 µg/mL (≈ 8.12 µM) | 1 µg/mL (≈ 4.06 µM) | 4 µg/mL (≈ 16.2 µM)
23 | FC(F)(F)c1cc(NC(=S)N/N=C/c2ccccn2)cc(C(F)(F)F)c1 [(37)] | – | – | – | 0.5 µg/mL (≈ 1.27 µM) | 1 µg/mL (≈ 2.55 µM) | 1 µg/mL (≈ 2.55 µM)
24 | Fc1ccc(NC(=S)N/N=C/c2ccccn2)cc1 [(39)] | – | – | – | 2 µg/mL (≈ 7.29 µM) | 2 µg/mL (≈ 7.29 µM) | 4 µg/mL (≈ 14.6 µM)
25 | Oc1ccccc1/C=N/NC(=S)Nc1cccc(F)c1 [(40)] | – | – | – | 32 µg/mL (≈ 111 µM) | 2 µg/mL (≈ 6.91 µM) | > 128 µg/mL
26 | S=C(N/N=C/c1ccccn1)Nc1ccccc1 [(41)] | – | – | – | > 128 µg/mL | > 128 µg/mL | > 128 µg/mL
27 | COC(=O)c1ccc(COc2ccc(/C=N/NC(=S)Nc3cccc(C(F)(F)F)c3)c(O)c2)cc1 [(43)] | – | – | – | 0.5 µg/mL (≈ 0.993 µM) | 0.5 µg/mL (≈ 0.993 µM) | 0.25 µg/mL (≈ 0.497 µM)
28 | Oc1cc(OCc2ccccc2)ccc1/C=N/NC(=S)Nc1ccc(Cl)cc1 [(45), N-[(4-chloro-phenyl)]-2-[(E)-(4-benzyloxy-2-hydroxyphenyl)methylidene]-1-hydrazonecarbothiamide] | – | – | – | 1 µg/mL (≈ 2.43 µM) | 0.5 µg/mL (≈ 1.21 µM) | 0.5 µg/mL (≈ 1.21 µM)
29 | COC(=O)c1ccc(COc2ccc(/C=N/NC(=S)Nc3ccc(Cl)cc3)c(O)c2)cc1 [(46)] | – | – | – | 1 µg/mL (≈ 2.13 µM) | 0.25 µg/mL (≈ 0.532 µM) | 0.25 µg/mL (≈ 0.532 µM)
30 | N-[(4-dimethylamino)sulfonyl-N-piperidyl)phenyl)]-2-[(E)-(4-benzyloxy-2-hydroxyphenyl)methylidene]-1-hydrazonecarbothiamide [(52)] | > 64 µg/mL | – | > 64 µg/mL | – | – | –
